Data reported in article PMC8449414, “Rational design of ASCT2 inhibitors using an integrated experimental-computational approach” (Proceedings of the National Academy of Sciences of the …, 2021).
pIC50: −log10 of the molar value.

The compounds below were run against T1, hASCT2 (Homo sapiens, UniProt Q15758) (assay: Glutamine transport assay in proteoliposomes reconstituted with purified hASCT2). Conditions: in the presence of 5 µM glutamine; read-out: IC50, inhibition of glutamine uptake in proteoliposomes.
T1 construct: expressed in transfected cells; host or cells: HEK293 (ATCC CRL-11268), transient transfection
T1 sequence (Q15758 1-541): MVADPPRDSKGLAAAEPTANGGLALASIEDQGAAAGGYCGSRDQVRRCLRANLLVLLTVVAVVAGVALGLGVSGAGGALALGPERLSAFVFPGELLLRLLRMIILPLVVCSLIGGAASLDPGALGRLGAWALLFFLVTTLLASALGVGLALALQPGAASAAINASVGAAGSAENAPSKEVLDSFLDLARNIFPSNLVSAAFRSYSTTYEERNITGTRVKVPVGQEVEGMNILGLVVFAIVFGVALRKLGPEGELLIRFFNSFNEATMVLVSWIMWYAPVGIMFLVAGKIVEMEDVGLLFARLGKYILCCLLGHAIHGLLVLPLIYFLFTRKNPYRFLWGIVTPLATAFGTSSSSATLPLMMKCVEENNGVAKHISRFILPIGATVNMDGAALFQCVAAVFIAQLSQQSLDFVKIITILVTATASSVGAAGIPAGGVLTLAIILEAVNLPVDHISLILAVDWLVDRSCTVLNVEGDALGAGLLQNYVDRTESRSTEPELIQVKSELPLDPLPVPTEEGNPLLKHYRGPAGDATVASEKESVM
Format: biochemical
Description: Our computational models predicted Lc-BPE as a competitive inhibitor targeting the substrate binding site. To test this prediction, we performed electrophysiological competition experiments in the presence of varying concentrations of the substrate, L-alanine. The results were consistent with a competitive inhibition mechanism (SI Appendix, Fig. S4). At low inhibitor concentrations, the alanine-induced currents were inward, as expected from transported substrates, indicative of the inability of Lc-BPE to displace alanine from the binding site. However, as inhibitor concentration increased, the currents became outwardly directed in a dose-dependent manner, which marked the displacement of alanine by the inhibitor (SI Appendix, Fig. S5). The apparent Ki increased as a function of the alanine concentration, as anticipated for a competitive mechanism (SI Appendix, Figs. S5 and S6). […] We further tested the inhibitory activity of Lc-BPE in a cell-free transport assay in proteoliposomes, where purified and reconstituted hASCT2 catalyzes the exchange of intracellular nonlabeled L-glutamine with extracellular radioactive-labeled L-glutamine. We observed a dose-dependent inhibition of glutamine transport when Lc-BPE was added externally, which confirms that this compound is an hASCT2 inhibitor with a half-maximum inhibitory concentration (IC50) value of 20 µM in the presence of 5 µM glutamine (Fig. 2D).
Dilutions to working concentrations were made using external buffer. The highest […]
cells. For rASCT2, hASCT2 and hASCT1, external buffer contained 140 mM NaCl, 2 mM MgCl2, 2 mM CaCl2, and 10 mM HEPES, pH 7.40 while internal pipette solution comprised of 130 mM NaSCN, 2 mM MgCl2, 10 mM EGTA, 10 mM HEPES and 10mM alanine, pH 7.40. […] Current s traces were recorded using an Adams and List EPC7 amplifier and digitized using a Molecular Devices Digidata A/D converter.
Data analysis was performed as described previously 46. Linear and nonlinear curve fitting of the experimental data were analyzed using MicroCal Origin software. […]

| Compound | pIC50 |
| --- | --- |
| N[C@@H](COC(=O)c1ccc(NC(=O)c2ccccc2)cc1)C(=O)O [ERA-21] | 4.25 |
| O=C(O[C@H]1CN[C@H](C(=O)O)C1)c1ccc(C(=O)c2ccccc2)cc1 [ERA-35] | 3.39 |
| O=C(O[C@@H]1CN[C@H](C(=O)O)C1)c1ccc(-c2ccccc2)cc1 [Lc-BPE, L-cis hydroxyproline biphenyl ester] | 4.70 |
